Measured values taken from BindingDB's records for doi:10.1016/j.ejmech.2013.09.015 (China Pharmaceutical University, 2013).

assay: Agonist activity at VDR in human HL60 cells assessed as induction of cell differentiation after 96 hrs by NBT reduction assay

Row | Compound | EC50
1 | CCC(CC)(c1ccc(OCC(=O)C(C)(C)C)c(C)c1)c1ccc(C(=O)N[C@@H](C)C(=O)O)n1C | 2630 nM
2 | CCC(CC)(c1ccc(OCC(=O)C(C)(C)C)c(C)c1)c1ccc(C(=O)N[C@@H](CC(=O)O)C(=O)O)n1C | 410 nM
3 | CCC(CC)(c1ccc(OCC(=O)C(C)(C)C)c(C)c1)c1ccc(C(=O)NCC(=O)OC)n1C | 23 nM
4 | CCC(CC)(c1ccc(OCC(O)C(C)(C)C)c(C)c1)c1ccc(C(=O)N[C@@H](C)CO)n1C (stereo not given in full) | 570 nM
5 | CCC(CC)(c1ccc(OCC(O)C(C)(C)C)c(C)c1)c1ccc(C(=O)N[C@H](CO)CCO)n1C (stereo not given in full) | 200 nM
6 | CCC(CC)(c1ccc(OCC(O)C(C)(C)C)c(C)c1)c1ccc(C(=O)NCCCO)n1C (stereo not given) | 150 nM

The remaining lines, values ahead:

Row | EC50 | Compound
7 | 4.1 nM | CCn1c(C(=O)N[C@@H](C)C(=O)O)ccc1C(CC)(CC)c1ccc(OCC(O)C(C)(C)C)c(C)c1 (stereo not given in full)
8 | 5640 nM | CCn1c(C(=O)NCCO)ccc1C(CC)(CC)c1ccc(OCC(O)C(C)(C)C)c(C)c1 (stereo not given)
9 | 4950 nM | CCC(CC)(c1ccc(OCC(O)C(C)(C)C)c(C)c1)c1ccc(C(=O)NCC(=O)O)n1C (stereo not given)
10 | 1830 nM | CCn1c(C(=O)NCC(=O)OC)ccc1C(CC)(CC)c1ccc(OCC(=O)C(C)(C)C)c(C)c1
11 | 1600 nM | CCC(CC)(c1ccc(OCC(O)C(C)(C)C)c(C)c1)c1ccc(C(=O)NCCC(=O)O)n1C (stereo not given)
12 | 790 nM | CCC(CC)(c1ccc(OCC(=O)C(C)(C)C)c(C)c1)c1ccc(C(=O)NCCC(=O)OC)n1C
13 | 1.1 nM | CCn1c(C(=O)N[C@@H](C)CO)ccc1C(CC)(CC)c1ccc(OCC(O)C(C)(C)C)c(C)c1 (stereo not given in full)
14 | 110 nM | CCn1c(C(=O)N[C@H](CO)CCO)ccc1C(CC)(CC)c1ccc(OCC(O)C(C)(C)C)c(C)c1 (stereo not given in full)
15 | 7.1 nM | C=C1/C(=C\C=C2/CCC[C@]3(C)[C@@H]([C@H](C)CC[C@@H](O)C(C)C)CC[C@@H]23)C[C@@H](O)C[C@@H]1O [TACALCITOL]
